These results are taken from EP4610267A1, “CYCLIC DINUCLEOTIDES AND CONJUGATES THEREOF WITH ANTIBODIES” (priority 2024, dated 2025).

Common to all, as to conditions: digitonin permeabilised 293T reporter cells
The test system of one experiment is STING Q. Description: 293T STING digitonin reporter assay (Q haplotype). Format: cell-based, human. The protocol:
(§1) Digitonin Assay with 293T Reporter Cells. The generation of 293T reporter cells stably expressing different STING protein haplotypes (WT, HAQ, REF, AQ, or Q) was described previously (Novotna et al, J. Med. Chem. 2019,62, 10676). The cells were seeded at a density of 250 000 cells per cm^2 into 96 well white poly(D-lysine) coated plates in 100 µL of DMEM with high glucose supplemented with 10% heat inactivated FBS. Next day, the medium was removed, and compounds were added in 3-fold serial dilutions in a digitonin buffer containing 50 mM HEPES (pH 7.0), 100 mM KCl, 3 mM MgClz, 0.1 mM DTT, 85 mM sucrose, 0.2% (w/w) BSA, 1 mM ATP, 0.1 mM GTP, and 10 µg/mL digitonin A. After 30 min incubation at 37 °C with 5% CO2, the digitonin buffer was removed, cells were washed once with 100 µL of the cultivation medium, and 100 µL of fresh medium was added to each well. The plates with cells were further incubated for 5 h at 37 °C with 5% CO2. Thereafter, 50 µL of the medium was removed, and 30 µL of Bright-Glo Luciferase Assay System reagent was added to each well. […] Nonlinear regression curve fit with standard slope was used for EC50 value calculations. The EC50 value represents CDN concentration that gives half-maximal response of firefly luciferase in the 293T reporter assay.
In general terms: In a reporter assay the amount or activity of a reporter protein is the signal.

The target in the next experiment is T1, STING WT (Homo sapiens, UniProt Q86WV6, H232R).
T1 construct: expressed in transfected cells
T1 sequence (Q86WV6 whole entry H232R): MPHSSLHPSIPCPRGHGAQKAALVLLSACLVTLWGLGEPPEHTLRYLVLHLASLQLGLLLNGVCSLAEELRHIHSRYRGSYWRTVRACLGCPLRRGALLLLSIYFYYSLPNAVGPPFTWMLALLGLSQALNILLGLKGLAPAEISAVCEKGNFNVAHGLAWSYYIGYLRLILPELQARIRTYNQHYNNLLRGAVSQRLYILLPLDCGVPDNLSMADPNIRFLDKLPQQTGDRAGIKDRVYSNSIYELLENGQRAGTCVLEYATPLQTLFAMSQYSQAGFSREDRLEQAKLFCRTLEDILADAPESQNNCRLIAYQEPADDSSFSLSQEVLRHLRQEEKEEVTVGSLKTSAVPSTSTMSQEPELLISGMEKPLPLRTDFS
Description: 293T STING digitonin reporter assay (WT haplotype). It is filed as cell-based. As for the experimental part: as §1

Another experiment has as its target T2, STING AQ (Homo sapiens, UniProt Q86WV6, G230A/H232R/R293Q).
T2 construct: expressed in transfected cells
Description: 293T STING digitonin reporter assay (AQ haplotype). It is filed as cell-based. The protocol: as §1

In a further experiment the target is T3, STING HAQ (Homo sapiens, UniProt Q86WV6, G230A/H232R/R293Q/R71H).
T3 construct: expressed in transfected cells
T3 sequence (Q86WV6 whole entry R71H/G230A/H232R/R293Q): as the sequence (Q86WV6 whole entry H232R) above, with R71H, G230A, R293Q counted along it
As to the kind of experiment: 293T STING digitonin reporter assay (HAQ haplotype). It is filed as cell-based. As for the experimental part: as §1

The next experiment deals with T4, STING REF (Homo sapiens, UniProt Q86WV6).
T4 construct: expressed in transfected cells
T4 sequence (Q86WV6 whole entry): as the sequence (Q86WV6 whole entry H232R) above, with R232H counted along it
Description: 293T STING digitonin reporter assay (REF haplotype). It is filed as cell-based. As for the experimental part:
as §1

T2 sequence (Q86WV6 whole entry G230A/H232R/R293Q): as the sequence (Q86WV6 whole entry H232R) above, with G230A, R293Q counted along it

Turning to `Nc1ncnc2c1ncn2[C@@H]1O[C@@H]2OCP(=O)(S)O[C@@H]3[C@H](F)[C@@H](COP(=O)(S)OC[C@H]2[C@H]1F)O[C@H]3n1cnc2c(=O)[nH]cnc21` (single isomer, unassigned) [Compound 2.1], the EC50 (as a rule, the concentration giving half of the maximal effect) in the experiment with STING Q amounted to 350 nM; at STING WT it was 30 nM; at STING AQ, 180 nM; at STING HAQ, 180 nM; on STING REF, 140 nM.
